Laboratory results as given in patent US20020164397A1, “N-[N-(3, 3-DIMETHYLBUTYL)-L-ALPHA-ASPARTYL]-L-PHENYLALANINE 1-METHYL ESTER AS A SWEETENER IN CHEWING GUM” (priority 1998, published 2002).
Values joined by “and” are separate entries in the source; they are usually repeats but may differ in a detail not shown here. Identical values can stand only once. Where a SMILES comes first, the peptide text is derived from it.

Key:
[1] = Sweetness intensity of chewing gums versus chewing time, trained panel of experts (0-15 scale); assay type: in vivo; conditions: for average sweetness loss rate at 6-10 minutes / average sweetness intensity at 6-10 minutes / average sweetness loss rate at 10-20 minutes / average sweetness intensity at 10-20 minutes: isosweet sweetener concentrations; for average sweetness loss rate at 6-10 minutes / average sweetness intensity at 6-10 minutes: chewing time 6-10 minutes; for average sweetness intensity at 6-10 minutes / average sweetness intensity at 10-20 minutes: scale 0-15; for average sweetness loss rate at 10-20 minutes / average sweetness intensity at 10-20 minutes: chewing time 10-20 minutes
Method: FIG. 1 is a plot of the sweetness intensity of chewing gum prepared with sugar (sucrose), saccharin, aspartame, acesulfame-K, sucralose or neotame as a function of chewing time. Each chewing gum comprises the corresponding sweetener at a sweetener concentration that provides an identical (“isosweet”) degree of sweetness. The sweetness intensity was measured by a trained panel of experts and is expressed as the amount of sweetness based on a sweetness intensity scale of 0-15 units.
The sweetness profile of neotame in chewing gum is illustrated in FIG. 1. Also illustrated in FIG. 1 is a comparison of the sweetness intensity profiles, as measured by a trained panel of experts, of chewing gums prepared with neotame, aspartame, acesulfame-K, saccharin, sucralose, and sugar (sucrose). The sweetness detected is expressed as the amount of sweetness based on a universal sweetness scale of 0-15, and the values were obtained by having subjects of the trained panel chew pieces of gum containing the sweetener and reporting perceived sweetness after various chewing intervals. Since each chewing gum was prepared with an “isosweet” concentration (i.e., same level of sweetness; e.g., 100 ppm neotame and 3000 ppm aspartame are isosweet concentrations) of the respective sweetener and the scale is a measure of absolute sweetness at any point during chewing, the different sweetener profiles can be compared directly to each other.
Table 1 summarizes the sweetness intensity loss rates and average sweetness intensities which occur at a chewing time period of between 6 and 10 minutes and those which occur at a chewing time period between 10 and 20 minutes for a variety of sweeteners. The sweetness intensity loss rate is calculated as the difference in sweetness intensities measured at any two time points divided by the number of minutes of the time interval, and approximates the mathematical slope of the downward trend of sweetness intensity over time.
These values were determined by calculating the average sweetness intensity measured at the specified evaluation times. For example, for the chewing gum comprising neotame at between 6 and 10 minutes, the average sweetness intensity is determined to be (5.2+4.6+4.2)/3=4.7.
The advantage of sweetness extension provided by neotame can also be illustrated by comparison of the sweetness intensity half-lives over time. Table 2 summarizes the half-lives of sweetness intensity of chewing gums comprising different sweeteners after the maximum sweetness intensities (around two minutes) are reached. The half-life is a measure of the time of chewing in which half of the sweetness is lost relative to the time in which the sweetness intensity maximum is achieved.
(§1) The sensory profiling of chewing gum samples was carried out using the Spectrum Method of Descriptive Analysis (Meilgaard, M., Civille, G. V., Carr, B. T, 1999. Sensory Evaluation Techniques, 3rd Ed. CRC Press, New York, p. 173-229). Extensive sensory training was conducted in order to familiarize the panel, consisting of 6-8 individuals, with a product category, exposing the panel to the flavor attributes of the category and in-depth practice by the panelists in the use of a fifteen point scale for describing intensity differences. Once trained, the method enabled the trained panelists to indicate the sensory intensity of either sweetness intensity or flavor intensity in a universal context, where 0 indicates “none” of the attribute present, 2 approximates “threshold” intensities, 5 “slight or low” level, 7.5 “moderate” intensity, 10 “strong” and 15 “extreme”.
Chewing of the gums was initiated by the panel leader while starting a timer. As the time intervals 0.25, 0.5, 1.0, 2.0, 3.0, 4.0, 6.0, 8.0, 10.0, 12.0, 16.0, and 20.0 minutes approached, the panel leader gave panelists a five second warning and then called out the time to rate the attributes. To minimize fatigue, 3-4 samples were evaluated during one session. […]

[2] = Peppermint flavor intensity of chewing gums versus chewing time, trained panel of experts (0-15 scale); assay type: in vivo
Method: FIG. 2 is a plot of peppermint flavor intensity verses chewing time of chewing gums prepared with isosweet levels of aspartame (3000 ppm) and neotame (100 ppm). The chewing gum prepared with aspartame comprised a 1.5 wt % peppermint flavor, while the four neotame chewing gums comprised peppermint flavor at concentrations of 1.5, 1.25, 1.00, and 0.75 wt %. The peppermint flavor intensity was measured by a trained panel of experts and is plotted as a function of chewing time. The peppermint flavor intensity is expressed as the amount of peppermint flavor based on a universal peppermint intensity scale of 0-15 units.
As in the case of sweetness intensity comparisons, since the chewing gums were prepared with an identical amount of flavor and the scale is a measure of absolute flavor at any point during chewing, the different flavor profiles can be compared directly to each other. The rate of flavor intensity loss of the chewing gum comprising neotame is 0.0875 flavor intensity units per minute, while that of chewing gum comprising aspartame was determined to be 0.150 flavor intensity units per minute. Thus, the rate of flavor loss of a chewing gum comprising neotame is nearly half that of the flavor loss for a chewing gum comprising aspartame at an isosweet level and containing an equal concentration of peppermint flavor.
Table 4 summarizes the half-lives of both sweetness and flavor of chewing gums prepared with aspartame (3000 ppm) with 1.5 wt % flavor and neotame (100 ppm) with 1.5, 1.25, 1.00, and 0.75 wt % flavor amounts. The half-life is the time in minutes for the intensity to fall to half of its maximum value (sweetness, 2 minutes; flavor, 4 minutes).
as §1
Chewing of the gums was initiated by the panel leader while starting a timer. As the time intervals 0.25, 0.5, 1.0, 2.0, 3.0, 4.0, 6.0, 8.0, 10.0, 12.0, 16.0, and 20.0 minutes approached, the panel leader gave panelists a five second warning and then called out the time to rate the attributes. To minimize fatigue, 3-4 samples were evaluated during one session. Samples were assessed in duplicate, presented in a balanced order, unwrapped in two ounce plastic cups, and randomly coded with three-digit numbers. The panelists were given a ten minute break between samples to minimize carry-over effects. Water, Mott's Natural Applesauce and unsalted soda crackers were given as palate cleansers.
The data was analyzed for standard ANOVA for across sample comparison of attributes at each chew time. Data was then plotted as a graph of intensities vs. chewing time yielding either a sweetness or flavor profile for the entire chew time.

[3] = relative to sucrose; cited from earlier work
[4] = 1.50% flavor, time for intensity to fall to half of its maximum (2 minutes), aspartame 3000 ppm / neotame 100 ppm
[5] = chewing time in which half of the sweetness is lost relative to the sweetness intensity maximum, isosweet concentrations
[6] = 0.75% peppermint flavor, neotame 100 ppm
[7] = 1.00% peppermint flavor, neotame 100 ppm
[8] = 1.25% peppermint flavor, neotame 100 ppm
[9] = 1.50% flavor, time for intensity to fall to half of its maximum (4 minutes), aspartame 3000 ppm / neotame 100 ppm
[10] = 1.50% peppermint flavor, isosweet aspartame 3000 ppm / neotame 100 ppm
[11] = flavor amounts less than full-flavored (reduced to at least around 50%)
[12] = full-flavored chewing gum, about 4 to about 20 minutes of chewing

Question: With COC(=O)[C@H](Cc1ccccc1)NC(=O)[C@H](CC(=O)O)NCCC(C)(C)C [neotame, N-[N-(3,3-dimethylbutyl)-L-α-aspartyl]-L-phenylalanine 1-methyl ester] as the compound, how does the “half-life of sweetness intensity” value ([1]; 0.75% flavor, neotame 100 ppm) read?
Answer: 16.9 min

Question: And the “half-life of sweetness intensity” value ([1]; 1.00% flavor, neotame 100 ppm)?
Answer: 20.7 min

Question: What about the “half-life of sweetness intensity” value ([1]; 1.25% flavor, neotame 100 ppm) of the same compound?
Answer: 17.2 min

Question: And the “half-life of sweetness intensity” value [1, 4]?
Answer: 17.0 min

Question: What about the “sweetness intensity at 6 minutes” value ([1]; chewing gum, 100 ppm neotame, 6 minutes of chewing) of the same compound?
Answer: 5.2 sweetness intensity units

Question: And the “sweetness intensity at 10 minutes” value ([1]; chewing gum, 100 ppm neotame, 10 minutes of chewing)?
Answer: 4.2 sweetness intensity units

Question: And the “sweetness intensity at 8 minutes” value ([1]; chewing gum, 100 ppm neotame, evaluation time between 6 and 10 minutes)?
Answer: 4.6 sweetness intensity units

Question: What about the “half-life of sweetness intensity” value [1, 5] of the same compound?
Answer: 14.9 min

Question: What about the “half-life of peppermint flavor intensity” value ([2]; 0.75% flavor, neotame 100 ppm) of the same compound?
Answer: 33.1 min

Question: What about the “average flavor intensity at 4-20 minutes” value [2, 6] of the same compound?
Answer: 3.9 intensity units

Question: What about the “flavor loss rate at 4-20 minutes” value [2, 6] of the same compound?
Answer: 0.070 flavor intensity units per minute

Question: What about the “half-life of peppermint flavor intensity” value ([2]; 1.00% flavor, neotame 100 ppm) of the same compound?
Answer: 31.7 min

Question: And the “average flavor intensity at 4-20 minutes” value [2, 7]?
Answer: 4.0 intensity units

Question: And the “flavor loss rate at 4-20 minutes” value [2, 7]?
Answer: 0.075 flavor intensity units per minute

Question: What about the “half-life of peppermint flavor intensity” value ([2]; 1.25% flavor, neotame 100 ppm) of the same compound?
Answer: 31.3 min

Question: What about the “average flavor intensity at 4-20 minutes” value [2, 8] of the same compound?
Answer: 4.2 intensity units

Question: What about the “flavor loss rate at 4-20 minutes” value [2, 8] of the same compound?
Answer: 0.088 flavor intensity units per minute

Question: What about the “half-life of peppermint flavor intensity” value [2, 9] of the same compound?
Answer: 44.3 min

Question: And the “average flavor intensity at 4-20 minutes” value [2, 10]?
Answer: 4.6 intensity units

Question: And the “flavor loss rate at 4-20 minutes” value [2, 10]?
Answer: 0.0875 flavor intensity units per minute and 0.088 flavor intensity units per minute

Question: And the “average flavor intensities at 4-20 minutes” value ([2]; chewing gums comprising neotame having less flavor amounts than 1.5%)?
Answer: around 4.0 intensity units

Question: And the average flavor intensity [2, 11]?
Answer: ≥ 3.5 flavor intensity units

Question: And the “average flavor loss rate” value [2, 11]?
Answer: less than 0.1 flavor intensity units per minute

Question: And the average flavor intensity [2, 12]?
Answer: ≥ 4 flavor intensity units

Question: And the “average flavor loss rate” value [2, 12]?
Answer: less than 0.1 flavor intensity units per minute

Question: What about the “sweetness potency (× sweeter than sucrose)” value [3] of the same compound?
Answer: about 8000 ×

Question: Which “average sweetness loss rate at 6-10 minutes” value ([1]; chewing gum) does the source give for CC1=CC(=O)[N-]S(=O)(=O)O1.[K+] [acesulfame-K, the potassium salt of 3,4-dihydro-6-methyl-1,2,3-oxathiazine-4-one-2,2-dioxide] here?
Answer: 0.45 intensity units/min

Question: What about the “average sweetness intensity at 6-10 minutes” value ([1]; chewing gum) of the same compound?
Answer: 4.3 intensity units

Question: What about the “average sweetness loss rate at 10-20 minutes” value ([1]; chewing gum) of the same compound?
Answer: 0.26 intensity units/min

Question: What about the “average sweetness intensity at 10-20 minutes” value ([1]; chewing gum) of the same compound?
Answer: 2.0 intensity units

Question: What about the “half-life of sweetness intensity” value [1, 5] of the same compound?
Answer: 5.5 min

Question: For OC[C@H]1O[C@@](CO)(O[C@H]2O[C@H](CO)[C@@H](O)[C@H](O)[C@H]2O)[C@@H](O)[C@@H]1O [sucrose], which “average sweetness loss rate at 6-10 minutes” value ([1]; chewing gum) is on record?
Answer: 0.45 intensity units/min

Question: And the “average sweetness intensity at 6-10 minutes” value ([1]; chewing gum)?
Answer: 2.1 intensity units

Question: And the “average sweetness loss rate at 10-20 minutes” value ([1]; chewing gum)?
Answer: 0.11 intensity units/min

Question: And the “average sweetness intensity at 10-20 minutes” value ([1]; chewing gum)?
Answer: 0.6 intensity units

Question: And the “half-life of sweetness intensity” value [1, 5]?
Answer: 3.5 min

Question: For O=C1NS(=O)(=O)c2ccccc21 [saccharin], which “average sweetness loss rate at 6-10 minutes” value ([1]; chewing gum) is on record?
Answer: 0.52 intensity units/min

Question: And the “average sweetness intensity at 6-10 minutes” value ([1]; chewing gum)?
Answer: 3.1 intensity units

Question: What about the “average sweetness loss rate at 10-20 minutes” value ([1]; chewing gum) of the same compound?
Answer: 0.15 intensity units/min

Question: What about the “average sweetness intensity at 10-20 minutes” value ([1]; chewing gum) of the same compound?
Answer: 1.2 intensity units

Question: What about the “half-life of sweetness intensity” value [1, 5] of the same compound?
Answer: 4.5 min

Question: With OC[C@H]1O[C@H](O[C@]2(CCl)O[C@H](CCl)[C@@H](O)[C@@H]2O)[C@H](O)[C@@H](O)[C@H]1Cl [sucralose] as the compound, how does the “average sweetness loss rate at 6-10 minutes” value ([1]; chewing gum) read?
Answer: 0.52 intensity units/min

Question: And the “average sweetness intensity at 6-10 minutes” value ([1]; chewing gum)?
Answer: 3.3 intensity units

Question: And the “average sweetness loss rate at 10-20 minutes” value ([1]; chewing gum)?
Answer: 0.16 intensity units/min

Question: And the “average sweetness intensity at 10-20 minutes” value ([1]; chewing gum)?
Answer: 1.3 intensity units

Question: What about the “half-life of sweetness intensity” value [1, 5] of the same compound?
Answer: 4.5 min

Question: What does the source list for COC(=O)[C@H](Cc1ccccc1)NC(=O)[C@@H](N)CC(=O)O [aspartame] (HELM PEPTIDE1{D.F.[CO[*:1]]}$$$$V2.0)?
Answer: half-life of sweetness intensity [1, 4]: 7.6 min; average sweetness loss rate at 6-10 minutes ([1]; chewing gum): 0.52 intensity units/min; average sweetness intensity at 6-10 minutes ([1]; chewing gum): 4.6 intensity units; average sweetness loss rate at 10-20 minutes ([1]; chewing gum): 0.25 intensity units/min; average sweetness intensity at 10-20 minutes ([1]; chewing gum): 2.3 intensity units; half-life of sweetness intensity [1, 5]: 6.4 min; half-life of peppermint flavor intensity [2, 9]: 19.7 min; average flavor intensity at 4-20 minutes [2, 10]: 4.2 intensity units; flavor loss rate at 4-20 minutes [2, 10]: 0.150 flavor intensity units per minute
